Usually IC50 stands for the midpoint of a concentration-inhibition curve.

This assay has as its target human RORgammaT-Ligand Binding Domain (LBD) (Homo sapiens (Human), UniProt P51449). The experiment in a line: RORγ-Ligand Binding Domain TR-FRET Assay (co-activator peptide SRC1_2 recruitment). The class given is biochemical. Conditions: HIS-tagged RORγ-LBD 3 nM, biotinylated SRC1 LXXLL peptide 100 nM, incubated overnight at 4° C., 665 nm/615 nm ratio. The text has this: Activation of RORgammaT activity can be measured using, e.g., a biochemical TR-FRET assay. In such an assay, interaction of cofactor-derived peptides with human RORgammaT-Ligand Binding Domain (LBD) can be measured.
To identify novel antagonists of RORgammaT, an assay was developed which employs the interaction of RORgammaT with its co-activator peptide SRC1_2. […] The RORγ-Ligand Binding Domain TR-FRET Assay was run according to the following protocol.
HIS-tagged RORγ-LBD protein was recombinantly expressed in Escherichia coli. The RORγ-LBD protein was purified by Ni^2+-affinity resin. Purified protein was then diluted in assay buffer (50 mM Tris pH 7.0, 50 mM KCl, 1 mM EDTA, 0.1 mM DTT, 100 μg/mL bovine serum albumin, delipidated) to obtain a RORγ-LBD final concentration of 3 nM.
Compounds to be tested were injected to the 384-well assay plate using Acoustic Droplet Ejection technology by Echo 550 liquid handler (Labcyte, CA).

human RORgammaT-Ligand Binding Domain (LBD), sequence (P51449 269-508): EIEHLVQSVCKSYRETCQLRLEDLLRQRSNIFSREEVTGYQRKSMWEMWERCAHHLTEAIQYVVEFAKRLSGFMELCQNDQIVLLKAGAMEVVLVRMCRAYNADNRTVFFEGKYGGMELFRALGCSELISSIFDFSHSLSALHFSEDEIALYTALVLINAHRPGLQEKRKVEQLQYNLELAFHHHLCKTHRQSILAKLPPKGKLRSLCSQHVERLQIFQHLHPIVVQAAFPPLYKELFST

On to `Cc1ccc(S(=O)(=O)N2C[C@H]([C@H]3C[C@@H]3C(=O)O)Oc3ccc(NC(=O)OC(C)(C)C(F)(F)F)cc32)cc1` (single isomer, unassigned) [Example 22G, (1S,2S or 1R,2R or 1S,2R or 1R,2S)-2-((S)-4-tosyl-6-((((1,1,1-trifluoro-2-methylpropan-2-yl)oxy)carbonyl)amino)-3,4-dihydro-2H-benzo[b][1,4]oxazin-2-yl)cyclopropanecarboxylic acid], for which the IC50 came out at 34.2 nM. Consider `Cc1ccc(S(=O)(=O)N2C[C@H]([C@@H]3C[C@H]3C(=O)O)Oc3ccc(NC(=O)OC(C)(C)C(F)(F)F)cc32)cc1` (single isomer, unassigned) [Example 22H, (1S,2S or 1R,2R or 1S,2R or 1R,2S)-2-((S)-4-tosyl-6-((((1,1,1-trifluoro-2-methylpropan-2-yl)oxy)carbonyl)amino)-3,4-dihydro-2H-benzo[b][1,4]oxazin-2-yl)cyclopropanecarboxylic acid], for which the IC50 is 141 nM.

For the compound `COc1cc(S(=O)(=O)N2C[C@H]([C@@H]3C[C@H]3C(=O)O)Oc3ccc(NC(=O)OC(C)(C)C(F)(F)F)cc32)ccc1F` (single isomer, unassigned) [Example 22J, (1R,2S or 1R,2R or 1S,2S or 1S,2R)-2-((S)-4-((4-fluoro-3-methoxyphenyl)sulfonyl)-6-((((1,1,1-trifluoro-2-methylpropan-2-yl)oxy)carbonyl)amino)-3,4-dihydro-2H-benzo[b][1,4]oxazin-2-yl)cyclopropanecarboxylic acid], the IC50 turned out to be 13.5 nM. The value for `COc1cc(S(=O)(=O)N2C[C@H]([C@H]3C[C@H]3C(=O)O)Oc3ccc(NC(=O)OC(C)(C)C(F)(F)F)cc32)ccc1F` (single isomer, unassigned) [Example 22M, (1R,2S or 1R,2R or 1S,2S or 1S,2R)-2-((S)-4-((4-fluoro-3-methoxyphenyl)sulfonyl)-6-((((1,1,1-trifluoro-2-methylpropan-2-yl)oxy)carbonyl)amino)-3,4-dihydro-2H-benzo[b][1,4]oxazin-2-yl)cyclopropanecarboxylic acid] was 8.71 nM. Take `COc1cc(S(=O)(=O)N2C[C@H]([C@@H]3C[C@@H]3C(=O)O)Oc3ccc(NC(=O)OC(C)(C)C(F)(F)F)cc32)ccc1F` (single isomer, unassigned) [Example 22N, (1R,2S or 1R,2R or 1S,2S or 1S,2R)-2-((S)-4-((4-fluoro-3-methoxyphenyl)sulfonyl)-6-((((1,1,1-trifluoro-2-methylpropan-2-yl)oxy)carbonyl)amino)-3,4-dihydro-2H-benzo[b][1,4]oxazin-2-yl)cyclopropanecarboxylic acid]: the IC50 was determined as 5.87 nM. The value for `COc1cc(S(=O)(=O)N2C[C@H]([C@H]3C[C@@H]3C(=O)O)Oc3ccc(NC(=O)OC(C)(C)C(F)(F)F)cc32)ccc1F` (single isomer, unassigned) [Example 22i, (1R,2S or 1R,2R or 1S,2S or 1S,2R)-2-((S)-4-((4-fluoro-3-methoxyphenyl)sulfonyl)-6-((((1,1,1-trifluoro-2-methylpropan-2-yl)oxy)carbonyl)amino)-3,4-dihydro-2H-benzo[b][1,4]oxazin-2-yl)cylcopropanecarboxylic acid] was 22.4 nM; that for `COc1cc(S(=O)(=O)N2C[C@H](CCC(=O)O)Oc3ccc(NC(=O)O[C@@H](C)C(C)(C)C)cc32)ccc1F` (single isomer, unassigned) [Example 24C, 3-{(2S)-4-[(4-fluoro-3-methoxyphenyl)sulfonyl]-6-[({[(1S or 1R)-1,2,2-trimethylpropyl]oxy}carbonyl)amino]-3,4-dihydro-2H-1,4-benzoxazin-2-yl}propanoic acid] was 3.8 nM; that for `COc1cc(S(=O)(=O)N2C[C@H](CCC(=O)O)Oc3ccc(NC(=O)O[C@H](C)C(C)(C)C)cc32)ccc1F` (single isomer, unassigned) [Example 24D, 3-{(2S)-4-[(4-fluoro-3-methoxyphenyl)sulfonyl]-6-[({[(1S or 1R)-1,2,2-trimethylpropyl]oxy}cxarbonyl)amino]-3,4-dihydro-2H-1,4-benzoxazin-2-yl}propanoic acid] was 3.73 nM.

With `CCn1cc(S(=O)(=O)N2C[C@H](CCC(=O)O)Oc3ccc(NC(=O)OC(C)(C)C(F)(F)F)cc32)c(OCCO)n1` (stereo in doubt) [Example 6CA, 3-(4-{[1-ethyl-3-(2-hydroxyethoxy)-1H-pyrazol-4-yl]sulfonyl}-6-{[(2,2,2-trifluoro-1,1-dimethylethoxy)carbonyl]amino}-3,4-dihydro-2H-1,4-benzoxazin-2-yl)propanoic acid], the IC50 turned out to be 11.4 nM. The figure for `CC(C)(OC(=O)Nc1ccc2c(c1)N(S(=O)(=O)c1cccc(Br)c1)C[C@H](CCC(=O)O)O2)C(F)(F)F` [Example 6AA, (S)-3-(4-((3-bromophenyl)sulfonyl)-6-((((1,1,1-trifluoro-2-methylpropan-2-yl)oxy)carbonyl)amino)-3,4-dihydro-2H-benzo[b][1,4]oxazin-2-yl)propanoic acid] is 6 nM; for `CCOc1nn(C(F)F)cc1S(=O)(=O)N1C[C@H](CCC(=O)O)Oc2ccc(NC(=O)OC(C)(C)C(F)(F)F)cc21` [Example 6AB, (S)-3-(4-((1-(difluoromethyl)-3-ethoxy-1H-pyrazol-4-yl)sulfonyl)-6-((((1,1,1-trifluoro-2-methylpropan-2-yl)oxy)carbonyl)amino)-3,4-dihydro-2H-benzo[b][1,4]oxazin-2-yl)propanoic acid] it is 9 nM; for `CC(C)(OC(=O)Nc1ccc2c(c1)N(S(=O)(=O)c1cccc(C3CC3)c1)C[C@H](CCC(=O)O)O2)C(F)(F)F` [Example 6AC, (S)-3-(4-((3-cyclopropylphenyl)sulfonyl)-6-((((1,1,1-trifluoro-2-methylpropan-2-yl)oxy)carbonyl)amino)-3,4-dihydro-2H-benzo[b][1,4]oxazin-2-yl)propanoic acid] it is 8 nM. The figure for `CC(C)(OC(=O)Nc1ccc2c(c1)N(S(=O)(=O)c1ccc3c(c1)CCO3)C[C@H](CCC(=O)O)O2)C(F)(F)F` [Example 6AE, (S)-3-(4-((2,3-dihydrobenzofuran-5-yl)sulfonyl)-6-((((1,1,1-trifluoro-2-methylpropan-2-yl)oxy)carbonyl)amino)-3,4-dihydro-2H-benzo[b][1,4]oxazin-2-yl)propanoic acid] is 12.4 nM; for `CC(C)(OC(=O)Nc1ccc2c(c1)N(S(=O)(=O)c1c(Cl)nc3sccn13)C[C@H](CCC(=O)O)O2)C(F)(F)F` [Example 6AF, (S)-5-((2-(2-carboxyethyl)-6-((((1,1,1-trifluoro-2-methylpropan-2-yl)oxy)carbonyl)amino)-2H-benzo[b][1,4]oxazin-4(3H)-yl)sulfonyl)-6-chloroimidazo[2,1-b]thiazole] it is 6.2 nM. The figure for `CC(C)(OC(=O)Nc1ccc2c(c1)N(S(=O)(=O)c1ccc(Cl)c(Cl)c1)C[C@H](CCC(=O)O)O2)C(F)(F)F` [Example 6AH, (S)-3-(4-((3,4-dichlorophenyl)sulfonyl)-6-((((1,1,1-trifluoro-2-methylpropan-2-yl)oxy)carbonyl)amino)-3,4-dihydro-2H-benzo[b][1,4]oxazin-2-yl)propanoic acid] is 8.84 nM; for `Cc1ccc(S(=O)(=O)N2C[C@H](CCC(=O)O)Oc3ccc(NC(=O)OC(C)(C)C(F)(F)F)cc32)cc1Cl` [Example 6AJ, (S)-3-(4-((3-chloro-4-methylphenyl)sulfonyl)-6-((((1,1,1-trifluoro-2-methylpropan-2-yl)oxy)carbonyl)amino)-3,4-dihydro-2H-benzo[b][1,4]oxazin-2-yl)propanoic acid] it is 14 nM; for `Cc1c(Cl)cc(F)cc1S(=O)(=O)N1C[C@H](CCC(=O)O)Oc2ccc(NC(=O)OC(C)(C)C(F)(F)F)cc21` [Example 6AK, (S)-3-(4-((3-chloro-5-fluoro-2-methylphenyl)sulfonyl)-6-((((1,1,1-trifluoro-2-methylpropan-2-yl)oxy)carbonyl)amino)-3,4-dihydro-2H-benzo[b][1,4]oxazin-2-yl)propanoic acid] it is 11.1 nM. With `CC(C)(OC(=O)Nc1ccc2c(c1)N(S(=O)(=O)c1ccc(Cl)cn1)C[C@H](CCC(=O)O)O2)C(F)(F)F` [Example 6AL, (S)-2-((2-(2-carboxyethyl)-6-((((1,1,1-trifluoro-2-methylpropan-2-yl)oxy)carbonyl)amino)-2H-benzo[b][1,4]oxazin-4(3H)-yl)sulfonyl)-5-chloropyridine], the IC50 was found to be 15 nM. The value for `COc1cc(C)ccc1S(=O)(=O)N1C[C@H](CCC(=O)O)Oc2ccc(NC(=O)OC(C)(C)C(F)(F)F)cc21` [Example 6AQ, (S)-3-(4-((2-methoxy-4-methylphenyl)sulfonyl)-6-((((1,1,1-trifluoro-2-methylpropan-2-yl)oxy)carbonyl)amino)-3,4-dihydro-2H-benzo[b][1,4]oxazin-2-yl)propanoic acid] was 17.1 nM. The figure for `COc1cc(S(=O)(=O)N2C[C@H](CCC(=O)O)Oc3ccc(NC(=O)OC(C)(C)C(F)(F)F)cc32)ccn1` [Example 6AV, (S)-4-((2-(2-carboxyethyl)-6-((((1,1,1-trifluoro-2-methylpropan-2-yl)oxy)carbonyl)amino)-2H-benzo[b][1,4]oxazin-4(3H)-yl)sulfonyl)-2-methoxypyridine] is 24.1 nM.
